ChEMBL document CHEMBL5537165, “Hepatitis C: The Story of a Long Journey through First, Second, and Third Generation NS3/4A Peptidomimetic Inhibitors. What Did We Learn?” (J Med Chem, 2024)
*1 amine or outer side, *2 acyl side, *3 side chain or, on linkers, in order; H or OH if unused. Where a SMILES comes first, the peptide text is derived from it. Side-chain parts run from the residue outwards. [ ]: non-standard residue; d: D form. The star is where a group is joined. Tetrahydroisoquinolin(2-yl) = c1ccc2c(c1)CCN(*)C2; Pyrazinecarbonyl = O=C(c1cnccn1)*; Hyp = O=C(O)[C@@H]1C[C@@H](O)CN1; Abu = CC[C@H](N)C(=O)O; CO = O=C([*:1])[*:2]; Bn = c1ccc(C*)cc1

What was measured:
[1] = Oral bioavailability in Sprague-Dawley rat; assay type: ADME, organism-based; conditions: in vivo
[2] = Oral bioavailability in Beagle dog at 2 mg/kg; assay type: ADME, organism-based, Canis lupus familiaris; conditions: in vivo
[3] = Clearance in Sprague-Dawley rat at 2 mg/kg, iv by LC-MS/MS analysis; assay type: ADME, organism-based; conditions: in vivo
[4] = target: T1, Non-structural protein 4b (Hepacivirus hominis, UniProt F5B4I0); test: Binding affinity to Hepatitis C virus genotype 1a NS4B assessed as inhibition constant
T1 sequence (F5B4I0 whole entry): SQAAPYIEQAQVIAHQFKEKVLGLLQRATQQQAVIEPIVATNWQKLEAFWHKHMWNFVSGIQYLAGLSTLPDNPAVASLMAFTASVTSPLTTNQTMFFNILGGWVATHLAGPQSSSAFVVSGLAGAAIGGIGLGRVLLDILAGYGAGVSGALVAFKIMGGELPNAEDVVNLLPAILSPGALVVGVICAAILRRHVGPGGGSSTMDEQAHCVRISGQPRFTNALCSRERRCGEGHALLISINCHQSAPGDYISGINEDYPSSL

[5] = target: T1, Non-structural protein 4b; test: Binding affinity to Hepatitis C virus genotype 3a NS4B assessed as inhibition constant
[6] = Cmax in Sprague-Dawley rat at 3 mg/kg, po and measured upto 24 hrs by LC-MS/MS analysis; assay type: ADME, organism-based; conditions: in vivo
[7] = Half life in Sprague-Dawley rat at 5 mg/kg, po by LC-MS/MS analysis; assay type: ADME, organism-based; conditions: in vivo
[8] = AUC (0 to infinity) in liver to plasma of Sprague-Dawley rat at 3 mg/kg,po; assay type: ADME, organism-based; conditions: in vivo
[9] = Half life in Beagle dog at 5 mg/kg, po by LC-MS/MS analysis; assay type: ADME, organism-based, Canis lupus familiaris; conditions: in vivo
[10] = AUC in Sprague-Dawley rat plasma […] at 10 mg/kg, po administered via gavage by LC-MS/MS analysis; assay type: ADME, organism-based; conditions: in vivo
[11] = Cmax in Beagle dog at 3 mg/kg, po and measured upto 24 hrs by LC-MS/MS analysis; assay type: ADME, organism-based, Canis lupus familiaris; conditions: in vivo
[12] = Clearance in Beagle dog plasma at 0.5 mg/kg, iv and measured upto 24 hrs by LC-MS/MS analysis; assay type: ADME, organism-based, Canis lupus familiaris
[13] = Volume of distribution at steady state in Sprague-Dawley rat at 1 mg/kg, iv; assay type: ADME, organism-based; conditions: in vivo, read-out: Vdss
[14] = Volume of distribution at steady state in Beagle dog at 0.5 mg/kg, iv and measured upto 24 hrs by LC-MS/MS analysis; assay type: ADME, organism-based, Canis lupus familiaris; conditions: in vivo, read-out: Vdss
[15] = target: T1, Non-structural protein 4b; test: Inhibition of Hepatitis C virus genotype 1b NS4B
[16] = target: T1, Non-structural protein 4b; test: Inhibition of Hepatitis C virus genotype 3a NS4B
[17] = target: T1, Non-structural protein 4b; test: Binding affinity to Hepatitis C virus genotype 1 NS4B assessed as inhibition constant
[18] = target: Replicase polyprotein 1ab (Severe acute respiratory syndrome coronavirus 2, UniProt P0DTD1); test: Inhibition of SARS-CoV-2 3CL protease by FRET assay
SARS-CoV-2 [19] = test: Antiviral activity against SARS-CoV-2 infected in African green monkey Vero E6 cells assessed as reduction in viral replication measured after 48 hrs by Hoechst 33342 staining based analysis; assay type: functional, organism-based; conditions: Severe acute respiratory syndrome coronavirus 2, Vero C1008, 48 h
[20] = Inhibition of Hepatitis C virus NS3 protease; set-up: species or system Hepacivirus hominis
[21] = target: T1, Non-structural protein 4b; test: Binding affinity to full length Hepatitis C virus genotype 1b NS4B expressed in Escherichia coli assessed as inhibition constant
SARS-CoV-2 [22] = test: Antiviral activity against SARS-CoV-2 infected in human Huh-7 cells assessed as reduction in viral growth; assay type: functional, organism-based; conditions: Severe acute respiratory syndrome coronavirus 2, Huh-7
[23] = target: T1, Non-structural protein 4b; test: Inhibition of Hepatitis C virus genotype 1a NS4B

COc1ccc2nc3c(nc2c1)O[C@@H]1CC2C(=O)N[C@]4(C(=O)NS(=O)(=O)C5(C)CC5)C[C@@H]4/C=C/CCCCC[C@H](NC(=O)O[C@@H]4CCC[C@H]4CCCCC3)C(=O)N2C1 (some centres not stated)
bioavailability [1]: 8%
bioavailability [2]: 12%
clearance [3]: 33 mL/min/kg
Ki [4]: 0.005 nM
Ki [5]: 0.26 nM
Cmax [6]: 70 nM
half-life [7]: 3.8 h
AUC [8]: 2470 µM·h
half-life [9]: 2.3 h
AUC [10]: 20 µM·h
Cmax [11]: 350 nM
clearance [12]: 4.4 mL/min/kg
Vd [13]: 4 L/kg
Vd [14]: 0.5 L/kg

C=C[C@@H]1C[C@]1(NC(=O)[C@@H]1C[C@@H](Oc2cc3ccccc3cn2)CN1C(=O)[C@@H](NC(=O)OCC(C)C)C(C)(C)C)C(=O)NS(=O)(=O)C1(C)CC1
IC50 [15]: 2.7 nM
IC50 [16]: 430 nM

CCC[C@H](NC(=O)[C@@H]1C[C@@H](OC(=O)N2CCc3ccccc3C2)CN1C(=O)[C@@H](NC(=O)[C@@H](NC(=O)c1cnccn1)C(C)C)C(C)C)C(=O)C(=O)NC1CC1
Ki [17]: 2300 nM

C=C[C@@H]1C[C@]1(NC(=O)[C@@H]1C[C@@H](Oc2cc(-c3csc(NC(C)C)n3)nc3c(C(C)C)c(OC)ccc23)CN1C(=O)[C@@H](NC(=O)OC1CCCC1)C(C)(C)C)C(=O)O
IC50 [18]: 14 nM
EC50 (SARS-CoV-2 [19]): 45 nM

C=C[C@@H]1C[C@]1(NC(=O)[C@@H]1C[C@@H](Oc2cc(-c3ccccc3)nc3cc(OC)ccc23)CN1C(=O)[C@H](CCCCC)NC(=O)OC(C)(C)C)C(=O)O
IC50 [20]: 400 nM

C=C[C@@H]1C[C@]1(NC(=O)[C@@H]1C[C@@H](Oc2cc(-c3csc(C(=O)CC)n3)nc3c(C)c(OC)ccc23)CN1C(=O)[C@@H](NC(=O)OC1CCCC1)C(C)(C)C)C(=O)O
IC50 [18]: 10 nM
EC50 (SARS-CoV-2 [19]): 12 nM

COc1ccc2nc3c4c(c2c1)CC[C@]1(C[C@H]2C(=O)N[C@]5(C(=O)NS(=O)(=O)C6(C)CC6)C[C@H]5/C=C/CCCCC[C@H](NC(=O)O[C@@H]5CCC[C@H]5CCCCC3)C(=O)N2C1)O4
IC50 [18]: < 0.01 nM

COc1ccc2nc(C(F)(F)F)c3c(c2c1)CC[C@]1(C[C@H]2C(=O)N[C@]4(C(=O)NS(=O)(=O)C5(C)CC5)C[C@H]4/C=C/CCCCCC(NC(=O)OC(C)(C)C)C(=O)N2C1)O3 (some centres not stated)
IC50 [16]: 0.47 nM

CCC[C@H](NC(=O)[C@@H]1C[C@@H](OCc2cccc3ccccc23)CN1C(=O)[C@@H](NC(=O)[C@@H](NC(=O)[C@@H](CC(=O)O)NC(=O)[C@H](CC(=O)O)NC(C)=O)C1CCCCC1)C(C)C)C(=O)O
IC50 [20]: 27 nM

CC[C@H](C)[C@H](NC(=O)[C@@H](CC(=O)O)NC(=O)[C@H](CC(=O)O)NC(C)=O)C(=O)N[C@H](C(=O)N1CCC[C@H]1C(=O)N[C@@H](CS)C(=O)O)C(C)C (Ac-D[dD]IVPC-OH)
IC50 [20]: 4000 nM

CC[C@@H](C=O)NC(=O)[C@@H]1C[C@@H](OCc2ccccc2)CN1C(=O)[C@@H](NC(=O)[C@@H](NC(=O)[C@H](CC(=O)O)NC(=O)[C@H](CCC(=O)O)NC(C)=O)C(C)C)C(C)C (Ac-EDVV[Hyp](Bn)[Abu]-aldehyde)
Ki [17]: 890 nM

CC[C@@H](C=O)NC(=O)[C@@H]1C[C@@H](OCc2ccccc2)CN1C(=O)[C@@H](NC(=O)[C@@H](NC(=O)c1cnccn1)C(C)C)C(C)C (Pyrazinecarbonyl-VV[Hyp](Bn)[Abu]-aldehyde)
Ki [17]: 12000 nM

CC[C@@H](C=O)NC(=O)[C@@H]1C[C@@H](OC(=O)N2CCc3ccccc3C2)CN1C(=O)[C@@H](NC(=O)[C@@H](NC(=O)c1cnccn1)C(C)C)C(C)C (Pyrazinecarbonyl-VV[Hyp]([CO-Tetrahydroisoquinolin(2-yl)])[Abu]-aldehyde)
Ki [17]: 890 nM

CC(C)(C)OC(=O)N[C@H]1CCCCC/C=C\[C@@H]2C[C@@]2(C(=O)NS(=O)(=O)C2CC2)NC(=O)[C@@H]2C[C@@H](OC(=O)N3Cc4cccc(F)c4C3)CN2C1=O [DANOPREVIR]
Ki [4]: 1 nM

COc1ccc2c(O[C@@H]3C[C@H]4C(=O)N[C@]5(P(=O)(O)Cc6c(F)cccc6F)C[C@H]5CCCCCCC[C@H](NC(=O)OC5CCCC5)C(=O)N4C3)cc(-c3csc(NC(C)C)n3)nc2c1Cl [GS-9256]
Ki [21]: 0.089 nM
EC50 (SARS-CoV-2 [22]): 20 nM

C=C[C@@H]1C[C@]1(NC(=O)[C@@H]1C[C@@H]2CN1C(=O)[C@H](C1CCCC1)NC(=O)O[C@@H]1CCC[C@H]1CCCCCn1c(nc3cc(OC)ccc3c1=O)O2)C(=O)NS(=O)(=O)C1(C)CC1 [MK-2748]
bioavailability [1]: 40%
bioavailability [2]: 27%
clearance [3]: 88 mL/min/kg
Ki [4]: 0.009 nM
Ki [5]: 1.2 nM
IC50 [23]: 0.009 nM
Cmax [6]: 490 nM
half-life [7]: 1.9 h
AUC [8]: 2420 µM·h
half-life [9]: 2.5 h
AUC [10]: 28.9 µM·h
Cmax [11]: 4400 nM
clearance [12]: 1 mL/min/kg
Vd [13]: 5 L/kg
Vd [14]: 0.12 L/kg
